Results published in patent US5948791A, “Quinoline derivatives for treating malaria” (Hoffmann-La Roche Inc., priority 1995, dated 1999).
Read-outs that look alike come from different tables or passages of the source.

What was measured:
[1] = test system: Plasmodium falciparum strain NF54; assay: Growth inhibition of Plasmodium falciparum NF54 (chloroquine-sensitive) in vitro, [G-3H]-hypoxanthin incorporation; assay type: cell-based; conditions: chloroquine-sensitive strain NF54, 72 h, read-out: IC50 for P. falciparum NF54
Procedure, shortened: (§1)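 Asynchronous intraerythrocytic cultures in human A+ erythrocytes (0.7% parasitemia, 2.5% suspension) in RPMI 1640 with HEPES, NaHCO3 and human serum, exposed to compound titrated over 6-7 steps for 72 h at 37° C, 3% O2. Growth by [G-3H]-hypoxanthin incorporation against untreated controls; IC50 by logit regression.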

[2] = test system: Plasmodium falciparum K1; assay: Growth inhibition of Plasmodium falciparum K1 (chloroquine-resistant) in vitro, [G-3H]-hypoxanthin incorporation; assay type: cell-based, Plasmodium falciparum (strain K1); conditions: for IC50: Plasmodium falciparum, K1, 72 h, read-out: IC50 for P. falciparum K1; for Resistance index: ratio of the IC50 for K1 and the IC50 for NF54
Procedure, shortened: as §1

[3] = test system: Plasmodium berghei; assay: animal or person; assay type: in vivo, Plasmodium berghei (strain ANKA) in mice; conditions: Plasmodium berghei, mice, blood smears 48 h after treatment
Procedure, shortened: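 Male albino mice (~25 g) infected i.v. on D0 with P. berghei ANKA (0.2 ml of 10^8 parasitized erythrocytes/ml); single s.c. and p.o. dose 24 h post-infection, 10 mg/kg screen then titration.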

[4] = po, single peroral dose of 10 mg/kg, read-out: Growth inhibition in % after po administration (GI%, percentage reduction of the parasitemia)
[5] = sc, single subcutaneous dose of 10 mg/kg, read-out: Growth inhibition in % after sc administration (GI%, percentage reduction of the parasitemia)

| Compound | IC50 [1] [ng/mL] | IC50 [2] [ng/mL] | Resistance index [2] | inhibition in vivo at 10 mg/kg [3, 4] [%] | inhibition in vivo at 10 mg/kg [3, 5] [%] |
| --- | --- | --- | --- | --- | --- |
| COc1cc(CN[C@H]2CC[C@H](Nc3ccnc4cc(Cl)ccc34)CC2)cc(OC)c1OC.Cl.Cl [Example 112, trans-N1-(7-Chloro-quinolin-4-yl)-N4-(3,4,5-trimethoxy-benzyl)-cyclohexane-1,4-diamine dihydrochloride] | 4.3 | 17.2 | 4.0 | 99 | 99.9 |
| CN(C)c1ccc(CN[C@H]2CC[C@H](Nc3ccnc4cc(Cl)ccc34)CC2)cc1.Cl.Cl.Cl [Example 113, trans-N1-(7-Chloro-quinolin-4-yl)-N4-(4-dimethylamino-benzyl)-cyclohexane-1,4-diamine trihydrochloride] | 3 | 7.6 | 2.5 | 99.7 | 99.9 |
| Cl.Cl.Fc1cccc(F)c1CN[C@H]1CC[C@H](Nc2ccnc3cc(Cl)ccc23)CC1 [Example 114, trans-N1-(7-Chloro-quinolin-4-yl)-N4-(2,6-difluoro-benzyl)-cyclohexane-1,4-diamine dihydrochloride] | 2.9 | 8.4 | 2.9 | 99 | 99.9 |
